From patent US8022091B2, “Triazole derivative” (Taisho Pharmaceutical Co., Ltd., priority 2006, dated 2011)
pIC50: −log10 of the molar value.

Legend:
[1] = target: T1, human Edg-1 (S1P1) (Homo sapiens, UniProt P21453); experiment: S1P1 binding assay: inhibition of [33P]-S1P binding to membrane fraction of HEK-293 cells transferred with the human Edg-1 (S1P1) gene; conditions: for pIC50: [33P]-S1P 0.1 nM, human Edg-1 (S1P1) HEK-293 membrane fraction, 1 h at 30° C., read-out: IC50 (concentration at which binding in the absence of the test compound was inhibited by 50%)
T1 construct: expressed in transfected cells; host or cells: HEK-293
Procedure, shortened: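 With 0.1 nM [33P]-S1P and compound (10^−5M single point, or a concentration range for IC50) in 0.1% DMSO, membrane fractions from human Edg-1-expressing HEK-293 cells were treated for one hour at 30° C in 20 mM Tris-HCl pH 7.4 with NaF, deoxypyridoxine and BSA. Bound label was measured after filtration, with untransfected-cell background subtracted.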

[2] = test compound at 10 μM, inhibition of [33P]-S1P binding to the membrane fraction of HEK-293 cells expressing human Edg-1 (S1P1)
[3] = test compound 10 μM, inhibition of [33P]-S1P binding, membrane fraction

T1 sequence (P21453 whole entry): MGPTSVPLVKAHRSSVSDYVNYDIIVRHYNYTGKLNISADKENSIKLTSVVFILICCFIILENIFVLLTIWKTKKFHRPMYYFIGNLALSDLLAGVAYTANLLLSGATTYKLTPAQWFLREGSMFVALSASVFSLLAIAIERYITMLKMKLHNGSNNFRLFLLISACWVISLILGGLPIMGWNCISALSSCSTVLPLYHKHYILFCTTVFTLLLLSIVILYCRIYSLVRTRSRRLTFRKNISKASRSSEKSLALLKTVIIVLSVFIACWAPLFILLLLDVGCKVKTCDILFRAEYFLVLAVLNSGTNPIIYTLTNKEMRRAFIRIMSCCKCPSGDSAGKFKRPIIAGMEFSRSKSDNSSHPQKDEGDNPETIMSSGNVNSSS

inhibition at 10 µM [1, 3]	SMILES	further results
	CCn1c(Oc2ccccc2)nnc1[C@@H](Cc1ccccc1)NS(=O)(=O)c1ccc(Cl)c(Cl)c1 [Compound 1]	inhibition at 10 µM [1, 2]: 93.4%; Binding assay (membrane) % inhibition (10 μM) [1, 2]: 100.8%; melting point: 182 to 184 °C
	CCn1c(Sc2ccccc2)nnc1[C@@H](Cc1ccccc1)NS(=O)(=O)c1ccc(Cl)c(Cl)c1 [Compound 2]	inhibition at 10 µM [1, 2]: 103%; Binding assay (membrane) % inhibition (10 μM) [1, 2]: 97.8%; melting point: 134 to 138 °C
	CCn1c(Oc2ccc(C)cc2)nnc1[C@@H](C)NS(=O)(=O)c1ccc(Cl)c(Cl)c1 [Compound 3]	pIC50 [1]: 8.38; inhibition at 10 µM [1, 2]: 98.7%; melting point: 183.5 to 187.5 °C
	CCn1c(Oc2ccccc2C)nnc1[C@@H](C)NS(=O)(=O)c1ccc(Cl)c(Cl)c1 [Compound 4]	inhibition at 10 µM [1, 2]: 95.7%; melting point: 198.5 to 200.5 °C
	CCn1c(Oc2cccc(C)c2)nnc1[C@@H](C)NS(=O)(=O)c1ccc(Cl)c(Cl)c1 [Compound 5]	pIC50 [1]: ≥ 7.46; inhibition at 10 µM [1, 2]: 97.3%; melting point: 160 to 161 °C
	CCn1c([C@@H](C)NS(=O)(=O)c2ccc(Cl)c(Cl)c2)nnc1S(=O)(=O)c1ccc(C)cc1 [Compound 57, 3,4-Dichloro-N-[(R)-1-[4-ethyl-5(4-methylbenzenesulfonyl)-4H-[1,2,4]triazol-3-yl]-ethyl]-benzenesulfonamide]	melting point: 164 to 165 °C
90%	CCn1c(Oc2cccc(N3CCN(C)CC3)c2)nnc1[C@@H](C)NS(=O)(=O)CC1CCCCC1 [Compound 627]	
64.4%	CCCCCCCCCCS(=O)(=O)N[C@H](C)c1nnc(Oc2cccc(N3CCN(C)CC3)c2)n1CC [Compound 628]	
101%	CCn1c(Oc2cccc(N3CCN(C)CC3)c2)nnc1[C@@H](C)NS(=O)(=O)c1cc(C)oc1C(F)(F)F [Compound 629]	
107%	CCn1c(Oc2cccc(N3CCN(C)CC3)c2)nnc1[C@@H](C)NS(=O)(=O)c1ccc2c(c1)OCCO2 [Compound 630]	
95.2%	CCn1c(Oc2cccc(N3CCN(C)CC3)c2)nnc1[C@@H](C)NS(=O)(=O)c1sc(C)nc1C [Compound 631]	
59.9%	CCn1c(Oc2cccc(N3CCN(C)CC3)c2)nnc1[C@@H](C)NS(=O)(=O)c1cccc2nsnc12 [Compound 632]	
111%	CCn1c(Oc2cccc(N3CCN(C)CC3)c2)nnc1[C@@H](C)NS(=O)(=O)c1ccc2nsnc2c1 [Compound 633]	
51%	CCn1c(Oc2cccc(N3CCN(C)CC3)c2)nnc1[C@@H](C)NS(=O)(=O)c1cccc2nonc12 [Compound 634]	
68.7%	CCn1c(Oc2cccc(N3CCN(C)CC3)c2)nnc1[C@@H](C)NS(=O)(=O)c1ccsc1 [Compound 635]	
85.7%	CCn1c(Oc2cccc(N3CCN(C)CC3)c2)nnc1[C@@H](C)NS(=O)(=O)c1ccc(-c2cnco2)s1 [Compound 636]	
50.6%	CCn1c(Oc2cccc(N3CCN(C)CC3)c2)nnc1[C@@H](C)NS(=O)(=O)c1cnn(-c2ccccc2)c1C [Compound 637]	
59.5%	CCn1c(Oc2cccc(N3CCN(C)CC3)c2)nnc1[C@@H](C)NS(=O)(=O)c1ccc(-c2ccnc(SC)n2)s1 [Compound 640]	
85.2%	CCn1c(Oc2cccc(N3CCN(C)CC3)c2)nnc1[C@@H](C)NS(=O)(=O)c1cc(C)sc1C [Compound 641]	
85.5%	CCn1c(Oc2cccc(N3CCN(C)CC3)c2)nnc1[C@@H](C)NS(=O)(=O)c1ccc(OC)cc1OC [Compound 642]	
93%	CCn1c(Oc2cccc(N3CCN(C)CC3)c2)nnc1[C@@H](C)NS(=O)(=O)c1ccc(C(F)(F)F)cc1Cl [Compound 644]	
99%	CCn1c(Oc2cccc(N3CCN(C)CC3)c2)nnc1[C@@H](C)NS(=O)(=O)c1cccc(C(C)=O)c1 [Compound 647]	

inhibition at 10 µM [1, 3]	SMILES	further results
108%	CCn1c(Oc2cccc(N3CCN(C)CC3)c2)nnc1[C@@H](C)NS(=O)(=O)c1ccc(F)c2ccccc12 [Compound 648]	
64.7%	CCOc1ccc(NC(C)=O)cc1S(=O)(=O)N[C@H](C)c1nnc(Oc2cccc(N3CCN(C)CC3)c2)n1CC [Compound 649]	
91.9%	CCc1ccc(OC)c(S(=O)(=O)N[C@H](C)c2nnc(Oc3cccc(N4CCN(C)CC4)c3)n2CC)c1 [Compound 652]	
71.7%	CCn1c(Oc2cccc(N3CCN(C)CC3)c2)nnc1[C@@H](C)NS(=O)(=O)c1ccc(Cl)c(S(N)(=O)=O)c1 [Compound 654]	
94.9%	CCn1c(Oc2cccc(N3CCN(C)CC3)c2)nnc1[C@@H](C)NS(=O)(=O)c1ccc(Br)c(C(F)(F)F)c1 [Compound 657]	
80.4%	CCn1c(Oc2cccc(N3CCN(C)CC3)c2)nnc1[C@@H](C)NS(=O)(=O)c1cc(Br)cc(C(F)(F)F)c1 [Compound 658]	
95.4%	CCn1c(Oc2cccc(N3CCN(C)CC3)c2)nnc1[C@@H](C)NS(=O)(=O)c1csc2ccccc12 [Compound 662]	
98.6%	CCn1c(Oc2cccc(N3CCN(C)CC3)c2)nnc1[C@@H](C)NS(=O)(=O)c1ccc2cc(C)ccc2c1 [Compound 668]	
101%	CCC(NS(=O)(=O)c1ccc2c(Cl)cccc2c1)c1nnc(Oc2cccc(N3CCN(C)CC3)c2)n1CC (stereo not drawn) [Compound 671]	pIC50 [1]: ≥ 8.00
103%	CCn1c(Oc2cccc(N3CCN(C)CC3)c2)nnc1[C@@H](C)NS(=O)(=O)c1ccc2c(c1)CCO2 [Compound 672]	
62%	CCn1c(Oc2cccc(N3CCN(C)CC3)c2)nnc1[C@@H](C)NS(=O)(=O)c1ccc2c(c1)CCC(C)(C)O2 [Compound 673]	
97%	CCn1c(Oc2cccc(N3CCN(C)CC3)c2)nnc1[C@@H](C)NS(=O)(=O)c1ccc2c(c1)OCCCO2 [Compound 674]	
96.6%	CCn1c(Oc2cccc(N3CCN(C)CC3)c2)nnc1[C@@H](C)NS(=O)(=O)c1ccc2c(c1)OCO2 [Compound 675]	
92.6%	CCn1c(Oc2cccc(N3CCN(C)CC3)c2)nnc1[C@@H](C)NS(=O)(=O)c1ccc2c(c1)C(C)(C)CCC2(C)C [Compound 676]	
60.8%	CCn1c(Oc2cccc(N3CCN(C)CC3)c2)nnc1[C@@H](C)NS(=O)(=O)c1ccc2c(c1)CCN2C(C)=O [Compound 677]	
97.4%	CCn1c(Oc2cccc(N3CCN(C)CC3)c2)nnc1[C@@H](C)NS(=O)(=O)c1ccc2c(c1)CCC2 [Compound 678]	pIC50 [1]: 7.99
104%	CCn1c(Oc2cccc(N3CCN(C)CC3)c2)nnc1[C@@H](C)NS(=O)(=O)c1ccc2oc(=O)ccc2c1 [Compound 679]	
	CCn1c(Oc2ccc(F)cc2)nnc1[C@@H](C)N(CC(=O)O)S(=O)(=O)c1ccc(Cl)c(Cl)c1 [Compound 684]	melting point: 169.5 to 171.5 °C
80.1%	CCn1c(Oc2ccc(F)cc2)nnc1C(NS(=O)(=O)c1ccc(Cl)c(Cl)c1)C(F)(F)F (stereo not drawn) [Compound 687, 3,4-Dichloro-N-[1-[4-ethyl-5-(4-fluorophenoxy)-4H-[1,2,4]triazol-3-yl]-2,2,2-trifluoroethyl]-benzenesulfonamide]	
92.7%	CCn1c(Oc2ccc(F)cc2)nnc1[C@@H](CF)NS(=O)(=O)c1ccc(Cl)c(Cl)c1 [Compound 689]	
	CCn1c(Oc2cccc(N3CCN(C(C)=O)CC3)c2)nnc1[C@@H](C)NS(=O)(=O)c1ccc2c(Cl)cccc2c1 [Compound 698]	pIC50 [1]: 8.64
